Our source for the inhibition values is patent publication US10111875B2, “Pyrrolopyrimidine compounds and uses thereof” (HUTCHISON MEDIPHARMA LIMITED, priority 2010, dated 2018).

Sequence of Recombinant human JAK1 catalytic domain (P23458 875-1153): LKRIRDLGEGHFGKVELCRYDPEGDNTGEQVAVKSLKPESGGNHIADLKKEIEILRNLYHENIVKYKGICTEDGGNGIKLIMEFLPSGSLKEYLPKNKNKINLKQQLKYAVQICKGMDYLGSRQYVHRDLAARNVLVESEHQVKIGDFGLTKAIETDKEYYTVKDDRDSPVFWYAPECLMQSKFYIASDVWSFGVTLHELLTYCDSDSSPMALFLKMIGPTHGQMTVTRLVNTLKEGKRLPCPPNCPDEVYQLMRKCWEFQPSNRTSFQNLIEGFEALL

For the first assay, the target named is Recombinant human JAK1 catalytic domain (Homo sapiens (Human), UniProt P23458). Briefly: JAK1 kinase assay (Z'-LYTE Tyr 6 Peptide). The format is biochemical. The note with it: JAK1 kinase assay, 0.3 uM concentration; read-out: inhibition percentage (IR %). As to the method:
JAK1/2/3 kinase assay are performed in vitro using Kit-Tyr 6 Peptide (Invitrogen, Cat. No. PV4122). TYK2 kinase assay are performed in vitro using Z′-LYTE™ Kinase Assay Kit-Tyr 3 Peptide (Invitrogen, Cat. No. PV3192). […] All compounds are initially tested at 8 different concentrations (1 μM down to 0.0003 μM) using a 1:3 serial dilution scheme.
One may read the inhibition as how much of the control response was suppressed. With `CN(c1ccc(-c2nn[nH]n2)cn1)[C@@H]1CCN(c2ncnc3[nH]ccc23)C1` [Compound 160, (R)—N-(1-(7H-pyrrolo[2,3-d]pyrimidin-4-yl)pyrrolidin-3-yl)-N-methyl-5-(2H-tetrazol-5-yl)pyridin-2-amine], the inhibition at 0.3 µM fell in the range of 20 to 50%. Take `CN(c1ccc(-c2nn[nH]n2)cc1F)[C@@H]1CCN(c2ncnc3[nH]ccc23)C1` [Compound 161]: the inhibition at 0.3 µM is 50 to 100%. With `CN(c1ccc2nc[nH]c2n1)[C@@H]1CCN(c2ncnc3[nH]ccc23)C1` [Compound 163, (R)—N-(1-(7H-pyrrolo[2,3-d]pyrimidin-4-yl)pyrrolidin-3-yl)-N-methyl-3H-imidazo[4,5-b]pyridin-5-amine], the inhibition at 0.3 µM lay in the range of 50 to 100%. Take `CN(c1ccc2[nH]c(=O)[nH]c2n1)[C@@H]1CCN(c2ncnc3[nH]ccc23)C1` [Compound 164, (R)-5-((1-(7H-pyrrolo[2,3-d]pyrimidin-4-yl)pyrrolidin-3-yl)(methyl)amino)-1H-imidazo[4,5-b]pyridin-2(3H)-one]: the inhibition at 0.3 µM was in the range of 50 to 100%. As to `N#Cc1cnc2c(c1)[nH]c(=O)n2[C@@H]1CCN(c2ncnc3[nH]ccc23)C1` [Compound 165, (R)-3-(1-(7H-pyrrolo[2,3-d]pyrimidin-4-yl)pyrrolidin-3-yl)-2-oxo-2,3-dihydro-1H-imidazo[4,5-b]pyridine-6-carbonitrile], the inhibition at 0.3 µM fell in the range of 20 to 50%.

For the compound `CN(c1ccc(C#N)cc1N)[C@@H]1CCN(c2ncnc3[nH]ccc23)C1` [Compound 166, (R)-4-((1-(7H-pyrrolo[2,3-d]pyrimidin-4-yl)pyrrolidin-3-yl)(methyl)amino)-3-aminobenzonitrile], the inhibition at 0.3 µM was 20 to 50%. For `CN(c1ccc2nn[nH]c2n1)[C@@H]1CCN(c2ncnc3[nH]ccc23)C1` [Compound 167, (R)—N-(1-(7H-pyrrolo[2,3-d]pyrimidin-4-yl)pyrrolidin-3-yl)-N-methyl-3H-[1,2,3]triazolo[4,5-b]pyridin-5-amine], the inhibition at 0.3 µM fell in the range of 50 to 100%. Consider `COC(=O)c1ccc(N(C)[C@@H]2CCN(c3ncnc4[nH]ccc34)C2)nc1` [Compound 168], for which the inhibition at 0.3 µM was in the range of 50 to 100%. Regarding `CN(c1ccc(C(N)=O)cn1)[C@@H]1CCN(c2ncnc3[nH]ccc23)C1` [Compound 169, (R)-6-((1-(7H-pyrrolo[2,3-d]pyrimidin-4-yl)pyrrolidin-3-yl)(methyl)amino)nicotinamide], the inhibition at 0.3 µM lay within 20 to 50%.

With `CN(c1ccc(C(=O)NC2CC2)cn1)[C@@H]1CCN(c2ncnc3[nH]ccc23)C1` [Compound 171, (R)-6-((1-(7H-pyrrolo[2,3-d]pyrimidin-4-yl)pyrrolidin-3-yl)(methyl)amino)-N-cyclopropylnicotinamide], the inhibition at 0.3 µM was 50 to 100%.

`CN(c1ccc(C(=O)NCc2ccccc2)cn1)[C@@H]1CCN(c2ncnc3[nH]ccc23)C1` [Compound 172]: the inhibition at 0.3 µM was 20 to 50%. Take `CN(C)C(=O)c1ccc(N(C)[C@@H]2CCN(c3ncnc4[nH]ccc34)C2)nc1` [Compound 173]: the inhibition at 0.3 µM is 20 to 50%.

For `CN(c1ccc(C(=O)N[C@H](CO)c2ccccc2)cn1)[C@@H]1CCN(c2ncnc3[nH]ccc23)C1` [Compound 174], the inhibition at 0.3 µM was 50 to 100%. For the compound `CNC(=O)c1ccc(N(C)[C@@H]2CCN(c3ncnc4[nH]ccc34)C2)nc1` [Compound 175], the inhibition at 0.3 µM is 20 to 50%. With `CN(c1ccc(C(=O)Nc2cccc(F)c2)cn1)[C@@H]1CCN(c2ncnc3[nH]ccc23)C1` [Compound 177], the inhibition at 0.3 µM was 50 to 100%. For the compound `CN(C(=O)c1ccc(N(C)[C@@H]2CCN(c3ncnc4[nH]ccc34)C2)nc1)c1ccc(F)cc1` [Compound 178], the inhibition at 0.3 µM is 50 to 100%.

As for `CN(c1ccc(C(=O)N[C@@H](CO)c2ccccc2)cc1F)[C@@H]1CCN(c2ncnc3[nH]ccc23)C1` [Compound 179], the inhibition at 0.3 µM was in the range of 50 to 100%.

For `CC(C)[C@H](CO)NC(=O)c1ccc(N(C)[C@@H]2CCN(c3ncnc4[nH]ccc34)C2)c(F)c1` [Compound 180], the inhibition at 0.3 µM is 50 to 100%. As for `C[C@H](NC(=O)c1ccc(N(C)[C@@H]2CCN(c3ncnc4[nH]ccc34)C2)c(F)c1)c1ccccc1` [Compound 182], the inhibition at 0.3 µM fell in the range of 50 to 100%.

As for `COc1ccc(NC(=O)c2ccc(N(C)[C@@H]3CCN(c4ncnc5[nH]ccc45)C3)nc2)cc1` [Compound 183], the inhibition at 0.3 µM lay in the range of 50 to 100%. For the compound `CN(c1ccc(C(=O)NC2c3ccccc3CC2O)cc1F)[C@@H]1CCN(c2ncnc3[nH]ccc23)C1` (stereo partly shown) [Compound 184], the inhibition at 0.3 µM is 50 to 100%. Consider `CN(c1ccc(C(=O)Nc2cccc(Cl)c2)cc1F)[C@@H]1CCN(c2ncnc3[nH]ccc23)C1` [Compound 185], for which the inhibition at 0.3 µM lay within 50 to 100%. Regarding `Cc1ccc(NC(=O)c2ccc(N(C)[C@@H]3CCN(c4ncnc5[nH]ccc45)C3)nc2)cc1` [Compound 186], the inhibition at 0.3 µM was 50 to 100%. With `CN(c1ccc(C(=O)NCc2ccccc2)cc1F)[C@@H]1CCN(c2ncnc3[nH]ccc23)C1` [Compound 187], the inhibition at 0.3 µM is 50 to 100%. On the same count and under the same terms, under `C[C@H](NC(=O)c1ccc(N(C)[C@@H]2CCN(c3ncnc4[nH]ccc34)C2)nc1)c1ccccc1` [Compound 188] stands 20 to 50%; under `CN(c1ccc(C(=O)NC[C@H](O)c2ccccc2)cc1Cl)[C@@H]1CCN(c2ncnc3[nH]ccc23)C1` [Compound 189], 20 to 50%. Take `CN(c1ccc(C(=O)NCCO)cn1)[C@@H]1CCN(c2ncnc3[nH]ccc23)C1` [Compound 190]: the inhibition at 0.3 µM was 50 to 100%. With `CN(c1ccc(C(=O)Nc2ccc(F)cc2)cn1)[C@@H]1CCN(c2ncnc3[nH]ccc23)C1` [Compound 191], the inhibition at 0.3 µM was 50 to 100%. On to `CN(c1ccc(C(=O)Nc2ccccc2F)cn1)[C@@H]1CCN(c2ncnc3[nH]ccc23)C1` [Compound 192], for which the inhibition at 0.3 µM fell in the range of 50 to 100%. With `CN(c1ccc(C(=O)Nc2ccc(Cl)cc2)cn1)[C@@H]1CCN(c2ncnc3[nH]ccc23)C1` [Compound 193], the inhibition at 0.3 µM was 20 to 50%.

`CN(c1ccc(C(=O)N[C@@H]2CCC[C@H]2O)cn1)[C@@H]1CCN(c2ncnc3[nH]ccc23)C1` [Compound 194]: the inhibition at 0.3 µM is 20 to 50%. For `C[C@@H](NC(=O)c1ccc(N(C)[C@@H]2CCN(c3ncnc4[nH]ccc34)C2)nc1)c1ccccc1` [Compound 195], the inhibition at 0.3 µM was in the range of 50 to 100%. Same read-out and setting: under `COc1cccc(NC(=O)c2ccc(N(C)[C@@H]3CCN(c4ncnc5[nH]ccc45)C3)nc2)c1` [Compound 196] stands 20 to 50%. Regarding `CN(C(=O)c1ccc(N(C)[C@@H]2CCN(c3ncnc4[nH]ccc34)C2)nc1)c1ccccc1` [Compound 197], the inhibition at 0.3 µM fell in the range of 50 to 100%. As to `CN(c1ccc(C(=O)Nc2cccnc2)cn1)[C@@H]1CCN(c2ncnc3[nH]ccc23)C1` [Compound 198], the inhibition at 0.3 µM lay in the range of 20 to 50%. In the case of `CN(c1ccc(C(=O)NC(CO)c2ccc(Cl)cc2)cc1F)[C@@H]1CCN(c2ncnc3[nH]ccc23)C1` (stereo partly shown) [Compound 201], the inhibition at 0.3 µM is 50 to 100%.

For the compound `CN(c1ccc(C(=O)NC[C@H](O)c2ccccc2)cc1F)[C@@H]1CCN(c2ncnc3[nH]ccc23)C1` [Compound 202], the inhibition at 0.3 µM lay within 50 to 100%. As to `CN(c1ccc(C(=O)N[C@@H]2c3ccccc3C[C@@H]2O)cc1F)[C@@H]1CCN(c2ncnc3[nH]ccc23)C1` [Compound 203], the inhibition at 0.3 µM is 20 to 50%.

Turning to `CN(c1ccc(C(=O)N[C@@H](CO)c2ccccc2)cc1Cl)[C@@H]1CCN(c2ncnc3[nH]ccc23)C1` [Compound 205], the inhibition at 0.3 µM fell in the range of 50 to 100%. In the case of `CN(c1ccc(C(=O)NC(CO)c2ccccc2Cl)cc1F)[C@@H]1CCN(c2ncnc3[nH]ccc23)C1` (stereo partly shown) [Compound 207], the inhibition at 0.3 µM lay within 50 to 100%.

Regarding `CN(c1c(F)cc(C(=O)N[C@@H](CO)c2ccccc2)cc1F)[C@@H]1CCN(c2ncnc3[nH]ccc23)C1` [Compound 208], the inhibition at 0.3 µM lay in the range of 50 to 100%. Turning to `COC[C@H](NC(=O)c1ccc(N(C)[C@@H]2CCN(c3ncnc4[nH]ccc34)C2)nc1)c1ccccc1` [Compound 209], the inhibition at 0.3 µM was in the range of 50 to 100%.

Turning to `CN(c1ccc(NS(=O)(=O)c2ccc(F)cc2)cn1)[C@@H]1CCN(c2ncnc3[nH]ccc23)C1` [Compound 212], the inhibition at 0.3 µM lay within 50 to 100%. On to `CN(c1ccc(NS(=O)(=O)c2cc(F)ccc2F)cn1)[C@@H]1CCN(c2ncnc3[nH]ccc23)C1` [Compound 213], for which the inhibition at 0.3 µM fell in the range of 20 to 50%. Still for that read-out and setting: under `CN(c1ccc(NS(=O)(=O)c2cccs2)cn1)[C@@H]1CCN(c2ncnc3[nH]ccc23)C1` [Compound 214] stands 50 to 100%; under `CC(C)S(=O)(=O)Nc1ccc(N(C)[C@@H]2CCN(c3ncnc4[nH]ccc34)C2)nc1` [Compound 218], 50 to 100%.

Turning to `CN(c1ccc(NS(=O)(=O)Cc2ccccc2F)cn1)[C@@H]1CCN(c2ncnc3[nH]ccc23)C1` [Compound 219], the inhibition at 0.3 µM was in the range of 50 to 100%. In the case of `CN(c1ccc(NS(=O)(=O)Cc2cccc(F)c2)cn1)[C@@H]1CCN(c2ncnc3[nH]ccc23)C1` [Compound 220], the inhibition at 0.3 µM was in the range of 50 to 100%. In the case of `CN(c1ccc(NS(=O)(=O)Cc2ccc(F)cc2)cn1)[C@@H]1CCN(c2ncnc3[nH]ccc23)C1` [Compound 221], the inhibition at 0.3 µM lay in the range of 20 to 50%.

The assay is the same for the next values; noted with them: read-out: inhibition percentage (IR %).
For `C#Cc1ccc(N(C)[C@@H]2CCN(c3ncnc4[nH]ccc34)C2)nc1` [Compound 162, (R)—N-(1-(7H-pyrrolo[2,3-d]pyrimidin-4-yl)pyrrolidin-3-yl)-5-ethynyl-N-methylpyridin-2-amine], the inhibition at 0.3 µM fell in the range of 50 to 100%. For the compound `CN(c1ccc(C(=O)O)cn1)[C@@H]1CCN(c2ncnc3[nH]ccc23)C1` [Compound 170, (R)-6-((1-(7H-pyrrolo[2,3-d]pyrimidin-4-yl)pyrrolidin-3-yl)(methyl)amino)nicotinic acid], the inhibition at 0.3 µM was 50 to 100%.

Regarding `CCS(=O)(=O)Nc1ccc(N(C)[C@@H]2CCN(c3ncnc4[nH]ccc34)C2)nc1` [Compound 210, (R)—N-6-((1(7H-pyrrolo[2,3-d]pyrimidin-4-yl)pyrrolidin-3-yl)(methyl)(amino)pyridin-3-yl)ethanesulfonamfide], the inhibition at 0.3 µM is 50 to 100%.
